Counter-ions that a name gives are not always drawn.
Assays:
JH2 domain of human Tyk2 = target: T1, JH2 domain of human Tyk2 (Homo sapiens, UniProt P29597); experiment: JH2 biochemical assay (TR-FRET probe displacement); format: binding
T1 construct: 10×His-tagged TYK2 JH2 domain (amino acid 575-876)
Method in brief: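 10×His-tagged human TYK2 JH2 (aa 575-876, 2 nM) incubated 60 min with 2 nM fluorescent probe, 0.1 nM Tb anti-His antibody and compound (10-point 3-fold series from […] top). TR-FRET 520/495 nm ratio, falling with probe displacement, normalized and fitted to a 4-parameter logistic for IC50.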

[1] = test system: Tyk2 kinase activity on STAT4; experiment: pSTAT4 cell assay (MSD, NK92 cells); format: cell-based; settings: compounds 1 hr
Method in brief: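 Serum-starved NK92 cells were preincubated 1 hr with compound (10-point, four-fold dilutions from 10 μM), then stimulated with 30 ng/mL IL2 for 15 minutes. Lysates were read on an MSD plate assay using anti-STAT4 antibodies, and IC50 came from a 4-parameter logistic fit of normalized percent activity.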

[2] = TR-FRET probe displacement, JH2 domain of human Tyk2

T1 sequence (P29597 575-876): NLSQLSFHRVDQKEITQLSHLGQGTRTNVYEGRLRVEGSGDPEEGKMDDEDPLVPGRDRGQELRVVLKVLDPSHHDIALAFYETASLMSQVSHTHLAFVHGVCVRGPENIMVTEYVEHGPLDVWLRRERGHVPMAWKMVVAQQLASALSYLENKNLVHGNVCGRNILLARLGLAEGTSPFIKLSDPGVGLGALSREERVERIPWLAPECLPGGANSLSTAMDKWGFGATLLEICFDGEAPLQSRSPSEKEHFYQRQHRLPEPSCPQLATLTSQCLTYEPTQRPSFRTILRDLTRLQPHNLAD

SMILES | IC50 (JH2 domain of human Tyk2; JH2 biochemical assay) [nM] | IC50 ([1]; stimulated 15 minutes) [nM] | IC50 (JH2 domain of human Tyk2; [2]) [nM] | IC50 ([1]; then stimulated 15 minutes) [nM]
COC1CCN(c2nc(C)cc(N3CC4(CC4)c4cnc(NC(C)=O)cc43)n2)C1 (stereo not shown) [Example 137, N-(1′-(2-(3-methoxypyrrolidin-1-yl)-6-methylpyrimidin-4-yl)-1′,2′-dihydrospiro[cyclopropane-1,3′-pyrrolo[3,2-c]pyridin]-6′-yl)acetamide] | ≤ 10 | 100 to 1000 | – | –
CC(=O)Nc1cc2c(cn1)C1(CC1)CN2c1cc(-c2cnn(C)c2F)nc(C(C)(F)F)n1 [Example 310, N-(1′-(2-(1,1-difluoroethyl)-6-(5-fluoro-1-methyl-1H-pyrazol-4-yl)pyrimidin-4-yl)-1′,2′-dihydrospiro[cyclopropane-1,3′-pyrrolo[3,2-c]pyridin]-6′-yl)acetamide] | ≤ 10 | 10 to 100 | – | –
CC(=O)Nc1cc2c(cn1)C1(CC1)CN2c1cc(C)nc(OC2CC3(COC3)C2)n1 [Example 364, N-(1′-(2-((2-oxaspiro[3.3]heptan-6-yl)oxy)-6-methylpyrimidin-4-yl)-1′,2′-dihydrospiro[cyclopropane-1,3′-pyrrolo[3,2-c]pyridin]-6′-yl)acetamide] | 100 to 1000 | ≥ 1000 | – | –
CC(=O)Nc1cc2c(cn1)C1(CC1)CN2c1cc(C)nc(OC2CCCC2)n1 [Example 379, N-(1′-(2-(cyclopentyloxy)-6-methylpyrimidin-4-yl)-1′,2′-dihydrospiro[cyclopropane-1,3′-pyrrolo[3,2-c]pyridin]-6′-yl)acetamide trifluoroacetate] | – | – | 10 to 100 | ≥ 1000
COCCN1CCN(c2nc(C)cc(N3CC4(CC4)c4cnc(NC(C)=O)cc43)n2)CC1 [Example 233, N-(1′-(2-(4-(2-methoxyethyl)piperazin-1-yl)-6-methylpyrimidin-4-yl)-1′,2′-dihydrospiro[cyclopropane-1,3′-pyrrolo[3,2-c]pyridin]-6′-yl)acetamide trifluoroacetate] | ≥ 1000 | ≥ 1000 | – | –
CC(=O)Nc1cc2c(cn1)C1(CC1)CN2c1cc(C)cc(OC2CC(C)C2)n1 (stereo not shown) [Example 347, N-(1′-(4-methyl-6-(3-methylcyclobutoxy)pyridin-2-yl)-1′,2′-dihydrospiro[cyclopropane-1,3′-pyrrolo[3,2-c]pyridin]-6′-yl)acetamide trifluoroacetate] | 100 to 1000 | ≥ 1000 | – | –
CC(=O)Nc1cc2c(cn1)C1(CC1)CN2c1cc(C)cc(N(C)C)n1 [Example 190, N-(1′-(6-(dimethylamino)-4-methylpyridin-2-yl)-1′,2′-dihydrospiro[cyclopropane-1,3′-pyrrolo[3,2-c]pyridin]-6′-yl)acetamide] | 10 to 100 | ≥ 1000 | – | –
CC(=O)Nc1cc2c(cn1)C1(CC1)CN2c1cc(C2CCCO2)nc(C(C)(F)F)n1 (stereo not shown) [Example 26, N-(1′-(2-(1,1-difluoroethyl)-6-(tetrahydrofuran-2-y1)pyrimidin-4-yl)-1′,2′-dihydrospiro[cyclopropane-1,3′-pyrrolo[3,2-c]pyridin]-6′-yl)acetamide] | ≤ 10 | 100 to 1000 | – | –
CC(=O)Nc1cc2c(cn1)C1(CC1)CN2c1cc(C)nc(N2CC(F)C2)n1 [Example 217, N-(1′-(2-(3-fluoroazetidin-1-yl)-6-methylpyrimidin-4-yl)-1′,2′-dihydrospiro[cyclopropane-1,3′-pyrrolo[3,2-c]pyridin]-6′-yl)acetamide] | ≤ 10 | 100 to 1000 | – | –
CCCCCc1cc(N2CC3(CC3)c3cnc(NC(C)=O)cc32)nc(C(C)(F)F)n1 [Example 328, N-(1′-(2-(1,1-difluoroethyl)-6-pentylpyrimidin-4-yl)-1′,2′-dihydrospiro[cyclopropane-1,3′-pyrrolo[3,2-c]pyridin]-6′-yl)acetamide] | ≤ 10 | 10 to 100 | – | –
CCn1ncc(-c2cc(N3CC4(CC4)c4cnc(NC(C)=O)cc43)nc(C(C)(F)F)n2)c1F [Example 301, N-(1′-(2-(1,1-difluoroethyl)-6-(1-ethyl-5-fluoro-1H-pyrazol-4-yl)pyrimidin-4-yl)-1′,2′-dihydrospiro[cyclopropane-1,3′-pyrrolo[3,2-c]pyridin]-6′-yl)acetamide] | ≤ 10 | 10 to 100 | – | –
CC(=O)Nc1cc2c(cn1)C1(CC1)CN2c1cc(C)nc(-c2ccn(C)n2)n1 [Example 244, N-(1′-(6-methyl-2-(1-methyl-1H-pyrazol-3-yl)pyrimidin-4-yl)-1′,2′-dihydrospiro[cyclopropane-1,3′-pyrrolo[3,2-c]pyridin]-6′-yl)acetamide trifluoroacetate] | 10 to 100 | ≥ 1000 | – | –
CC(=O)Nc1cc2c(cn1)C1(CC1)CN2c1cc(C)nc(-c2cnn(C)c2)n1 [Example 245, N-(1′-(6-methyl-2-(1-methyl-1H-pyrazol-4-yl)pyrimidin-4-yl)-1′,2′-dihydrospiro[cyclopropane-1,3′-pyrrolo[3,2-c]pyridin]-6′-yl)acetamide trifluoroacetate] | 10 to 100 | 100 to 1000 | – | –
COC(C)CNc1cc(N2CC3(CC3)c3cnc(NC(C)=O)cc32)nc(C(C)(F)F)n1 (stereo not shown) [Example 171, N-(1′-(2-(1,1-difluoroethyl)-6-((2-methoxypropyl)amino)pyrimidin-4-yl)-1′,2′-dihydrospiro[cyclopropane-1,3′-pyrrolo[3,2-c]pyridin]-6′-yl)acetamide trifluoroacetate] | ≤ 10 | 10 to 100 | – | –
CCCCc1nc(C)cc(N2CC3(CC3)c3cnc(NC(C)=O)cc32)n1 [Example 58, N-(1′-(2-butyl-6-methylpyrimidin-4-yl)-1′,2′-dihydrospiro[cyclopropane-1,3′-pyrrolo[3,2-c]pyridin]-6′-yl)acetamide] | 10 to 100 | ≥ 1000 | – | –
CC(=O)Nc1cc2c(cn1)C1(CC1)CN2c1cc(C)nc(-n2cccn2)n1 [Example 100, N-(1′-(6-methyl-2-(1H-pyrazol-1-yl)pyrimidin-4-yl)-1′,2′-dihydrospiro[cyclopropane-1,3′-pyrrolo[3,2-c]pyridin]-6′-yl)acetamide] | 10 to 100 | ≥ 1000 | – | –
CC(=O)Nc1cc2c(cn1)C1(CC1)CN2c1cc(C)nc(OCC(C)(C)O)n1 [Example 286, N-(1′-(2-(2-hydroxy-2-methylpropoxy)-6-methylpyrimidin-4-yl)-1′,2′-dihydrospiro[cyclopropane-1,3′-pyrrolo[3,2-c]pyridin]-6′-yl)acetamide] | 10 to 100 | 100 to 1000 | – | –
COCCOc1ccnc(N2CC3(CC3)c3cnc(NC(C)=O)cc32)n1 [Example 99, N-(1′-(4-(2-methoxyethoxy)pyrimidin-2-yl)-1′,2′-dihydrospiro[cyclopropane-1,3′-pyrrolo[3,2-c]pyridin]-6′-yl)acetamide] | 10 to 100 | ≥ 1000 | – | –
CC(=O)Nc1cc2c(cn1)C1(CC1)CN2c1cc(OC2CC2)nc(C(C)(F)F)n1 [Example 6, N-(1′-(6-cyclopropoxy-2-(1,1-difluoroethyl)pyrimidin-4-yl)-1′,2′-dihydrospiro[cyclopropane-1,3′-pyrrolo[3,2-c]pyridin]-6′-yl)acetamide] | ≤ 10 | 10 to 100 | – | –
CC(=O)Nc1cc2c(cn1)C1(CC1)CN2c1cc(-c2cnn(C3CC3)c2)nc(C(C)(F)F)n1 [Example 387, N-(1′-(6-(1-cyclopropyl-1H-pyrazol-4-yl)-2-(1,1-difluoroethyl)pyrimidin-4-yl)-1′,2′-dihydrospiro[cyclopropane-1,3′-pyrrolo[3,2-c]pyridin]-6′-yl)acetamide trifluoroacetate] | – | – | ≤ 10 | ≤ 10
CC(=O)Nc1cc2c(cn1)C1(CC1)CN2c1cc(C)nc(C(F)F)n1 [Example 63, N-(1′-(2-(difluoromethyl)-6-methylpyrimidin-4-yl)-1′,2′-dihydrospiro[cyclopropane-1,3′-pyrrolo[3,2-c]pyridin]-6′-yl)acetamide] | 10 to 100 | ≥ 1000 | – | –
CC(=O)Nc1cc2c(cn1)C1(CC1)CN2c1cc(C)cc(N2CCNC(CCO)C2)n1 (stereo not shown) [Example 212, N-(1′-(6-(3-(2-hydroxyethyl)piperazin-1-yl)-4-methylpyridin-2-yl)-1′,2′-dihydrospiro[cyclopropane-1,3′-pyrrolo[3,2-c]pyridin]-6′-yl)acetamide trifluoroacetate] | 100 to 1000 | ≥ 1000 | – | –
CC(=O)Nc1cc2c(cn1)C1(CC1)CN2c1cc(OC2COC2)nc(C(C)(F)F)n1 [Example 141, N-(1′-(2-(1,1-difluoroethyl)-6-(oxetan-3-yloxy)pyrimidin-4-yl)-1′,2′-dihydrospiro[cyclopropane-1,3′-pyrrolo[3,2-c]pyridin]-6′-yl)acetamide] | ≤ 10 | 100 to 1000 | – | –
COCC(F)(F)c1nccc(N2CC3(CC3)c3cnc(NC(C)=O)cc32)n1 [Example 323, N-(1′-(2-(1,1-difluoro-2-methoxyethyl)pyrimidin-4-yl)-1′,2′-dihydrospiro[cyclopropane-1,3′-pyrrolo[3,2-c]pyridin]-6′-yl)acetamide] | 100 to 1000 | 100 to 1000 | – | –
COCC(F)(F)c1nc(C)cc(N2CC3(CC3)c3cnc(NC(C)=O)cc32)n1 [Example 401, N-(1′-(2-(1,1-difluoro-2-methoxyethyl)-6-methylpyrimidin-4-yl)-1′,2′-dihydrospiro[cyclopropane-1,3′-pyrrolo[3,2-c]pyridin]-6′-yl)acetamide trifluoroacetate] | – | – | 10 to 100 | ≥ 1000
COCCCc1cc(N2CC3(CC3)c3cnc(NC(C)=O)cc32)nc(C(C)(F)F)n1 [Example 326, N-(1′-(2-(1,1-difluoroethyl)-6-(3-methoxypropyl)pyrimidin-4-yl)-1′,2′-dihydrospiro[cyclopropane-1,3′-pyrrolo[3,2-c]pyridin]-6′-yl)acetamide] | ≤ 10 | 10 to 100 | – | –
